From the METLIN SMRT retention time set (Domingo-Almenara et al. 2019)

Experiment: gradient 5% acetonitrile 3 min, to 50% in 2 min, to 85% in 15 min, held 3 min, 100 µL/min
Conditions: column: Zorbax Extend-C18 2.1 x 50 mm; eluents: water / acetonitrile, 0.1% formic acid
In short: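 Pure standards were analyzed in mixtures of ~100 molecules using HPLC coupled to a quadrupole time-of-flight mass spectrometer, in both positive and negative ionization mode. Separation used a Zorbax Extend-C18 column (2.1 × 50 mm, 1.8 μm) at 100 μL/min, with water and acetonitrile each containing 0.1% formic acid. Dead and dwell volumes were 40 μL and 900 μL, and data were collected over 3 months. Retention time was read from computationally picked adduct peaks, each inspected manually.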

| RP-LC retention time [s] | Compound |
| --- | --- |
| 962 | CSc1ccc(CNC(=O)Cn2c(=O)cc(-c3nc(C4CC4)no3)c3ccccc32)cc1 |
| 947 | COc1cc(CNC(=O)CCCC/C=C\C(C)C)ccc1O |
| 1210 | Cc1cccc(-c2noc(C3CCCN3S(=O)(=O)c3ccc(C)c(C)c3)n2)c1 (stereo unspecified) |
| 723 | CCn1cc(CC(=O)NCc2ccc(F)cc2F)c2cccnc21 |
| 1010 | CCCC(=O)Nc1ccc(-c2nc(-c3ccccc3)co2)cc1 |
| 900 | COc1cccc2oc(-c3ccccc3)cc(=O)c12 |
| 1080 | Cc1ccc(NC(=O)Cn2nc3c(N4CCN(c5ccccc5C)CC4)nccn3c2=O)cc1 |
| 645 | COc1ccc(CC(=O)Nc2c(-c3ccc(F)cc3)nc3ccccn23)cc1 |
| 634 | Cc1nc2cc3c(cc2n1CC(=O)NC(C)c1ccc2c(c1)OCCCO2)OCCO3 (stereo unspecified) |
| 942 | CCN(C(=O)C1CCN(S(=O)(=O)c2ccc3c(c2)sc(=O)n3CC)CC1)c1ccccc1 |
| 823 | Clc1ccc(Cc2nnc3ccc(Cl)nn23)cc1 |
| 692 | CNc1nc(NCc2ccc(NC(=O)c3ccc(F)cc3)cc2)c2ccccc2n1 |
| 683 | COc1cccc(CNC(=O)C2CCN(c3nnc4c(Cl)cccn34)CC2)c1 |
| 679 | Cc1ccc(-c2nnc(-c3cccc(S(=O)(=O)N4CCN(C)CC4)c3)o2)cc1 |
| 797 | O=C(c1cc2ccccc2[nH]1)N1CCN(C(=O)c2ccc(Br)o2)CC1 |
| 638 | CCOC(=O)c1cccc(NC(=O)CCc2ccc3nc(CC)[nH]c3c2)c1 |
| 929 | CC(C)Cc1ccc(S(=O)(=O)N2CCC(c3nc4cccnc4n3C)C2)cc1 (stereo unspecified) |
| 666 | COc1cc(OC)c(C(=O)CCCN2CCCC2)c(OC)c1 |
| 621 | Cc1ccc2c(=O)c3c([nH]c2c1C)CCN(CC(=O)NCc1ccccc1F)C3 |
| 791 | COCCOCc1nc(C2CCN(S(=O)(=O)c3ccc(OC)cc3)C2)no1 (stereo unspecified) |
| 594 | CCC(C)NC(=O)N1CCc2c(c(-c3nc(-c4ccc(F)cc4)no3)nn2C)C1 (stereo unspecified) |
| 1000 | COc1ccc(Cc2nc(-c3cccc(-c4ccn[nH]4)c3)no2)c(Cl)c1 |
| 766 | O=C1COc2ccccc2N1Cc1nc(-c2ccc3c(c2)ncn3C2CCCC2)no1 |
| 620 | CCCc1cc(N2CCN(C(=O)Cc3cccs3)CC2)nc2nnc(C)n12 |
| 716 | Cc1nn(-c2cc(N(C)C)ncn2)c(C)c1CCC(=O)NCc1ccccc1 |
| 795 | COCc1cc2nn(CC(=O)Nc3ccccc3F)c(=O)n2c(-c2ccccc2)n1 |
| 631 | COc1ccc(OC)c(NC(=O)N2CCC(n3c(C)nc4cccnc43)CC2)c1 |

| RP-LC retention time [s] | Compound |
| --- | --- |
| 640 | CN(C)C(=O)c1ccc2c(c1)nnn2CCNC(=O)Nc1ccc(F)cc1 |
| 1150 | Cc1ccc(C(=O)N2CCc3nc(-c4ccc(Cl)cc4)ncc3C2)cc1F |
| 705 | O=S(=O)(Nc1ccc(Cn2cncn2)cc1)c1cccc(F)c1 |
| 690 | O=C(Cn1cccn1)N1CCCC(c2nnc(-c3ccccc3F)s2)C1 (stereo unspecified) |
| 719 | CSc1nnc(-c2nn(C)c3c2CN(C(=O)CCc2ccccc2)CC3)n1C |
| 710 | COCCn1cc(C(=O)Nc2ccc(N(C)C)cc2)c2nn(-c3ccccc3)c(=O)c-2c1 |
| 809 | CCCNC(=O)N1CCCN(C2=NS(=O)(=O)C(c3ccc(CC)cc3)=C2C)CC1 |
| 993 | COc1cc(NC(=O)Cn2cccc2-c2nnc(-c3ccccc3)o2)cc(OC)c1 |
| 756 | CCc1nc(OCC(=O)N(C)c2ccccc2)c2ccccc2n1 |
| 569 | CNC(=O)[C@H]1O[C@@H](n2cnc3c(NCc4ccc(N)cc4)ncnc32)C(O)[C@H]1O (stereo partly specified) |
| 1030 | COc1ccc(Cc2nnc3sc(-c4ccc(OC)cc4OC)nn23)cc1 |
| 1020 | CCN(CC)S(=O)(=O)c1cccc(-c2nnc(-c3ccc(OC)cc3)o2)c1 |
| 669 | CNC(=O)C1CCCN(c2nc3ncn(CC(=O)Nc4cc(Cl)ccc4C)c(=O)c3s2)C1 (stereo unspecified) |
| 982 | COc1ccc(-c2cc(C(=O)Nc3cc(C)ccc3C)nn2C2CCS(=O)(=O)C2)cc1 (stereo unspecified) |
| 669 | Cn1cc(CC(=O)NCc2ccc(F)cc2)c2cccnc21 |
| 717 | Cc1ccccc1C(=O)NCCc1nc2cccnc2n1CC(C)C |
| 1070 | Cc1sc(NC(=O)c2cccs2)nc1-c1ccccc1 |
| 659 | CCCn1cnc2cc(CNC(=O)C3CC(=O)N(c4cccc(Cl)c4)C3)ccc21 (stereo unspecified) |
| 848 | COC(=O)C1=CN(c2cc(OC)cc(OC)c2)c2ccccc2S1(=O)=O |
| 790 | CC(C)n1nnc2cc(C(=O)N(C)CC(=O)Nc3ccc(F)c(Cl)c3)ccc21 |
| 897 | Cc1ccc(-c2noc(Cn3ccn(-c4ccccc4)c(=O)c3=O)n2)cc1C |
| 668 | COc1ccc(-n2c(CN3CCN(C(=O)NC4CCCCC4)CC3)nc3cccnc32)cc1 |
| 891 | COc1ccc(-c2noc(NCCc3ccc(OC)c(OC)c3)n2)cc1 |
| 959 | CCc1ccc(CNC(=O)c2nnc(-c3ccc(S(=O)(=O)N(C)C)cc3)o2)cc1 |
| 656 | COC[C@@H]1CN(Cc2cn(C)c3ccccc23)C[C@H]1c1nc(C)no1 |
| 570 | O=C(CCc1c(-c2ccc(Cl)cc2)nc2ccccn12)NCc1cccnc1 |
| 769 | O=C(N[C@@H](Cc1c[nH]c2ccccc12)C(=O)O)c1cc2ccccc2o1 |

Further lines, the compound ahead of its results:

| Compound | RP-LC retention time [s] |
| --- | --- |
| Cc1cccc(Sc2nccnc2N2CCC(C(=O)NC3CCCC3)CC2)c1 | 1040 |
| CC(C)(C)C(=O)Nc1cnc(N2CCNCC2)c(C(=O)N2CCCC2)c1 | 588 |
| O=C(NC1CCCC1)c1ccc2c(c1)nc1n2CCN(C2CCCCC2)C1=O | 763 |
| Cc1cc(C)c(C(=O)N2CCCC(C(=O)N3CCN(c4cccc(C)c4C)CC3)C2)[nH]1 (stereo unspecified) | 996 |
| CC1CC(C)CN(S(=O)(=O)N2CCCC(C(=O)NCc3ccc(F)cc3)C2)C1 (stereo unspecified) | 1060 |
| N#Cc1ccccc1NC(=O)C(=O)NCC1CCN(C(=O)c2ccccc2F)CC1 | 744 |
| CCc1noc(NC(C)=O)c1-c1ccc(C)c(S(=O)(=O)N2CCC(C)CC2)c1 | 929 |
| CCC(C)NS(=O)(=O)c1cc(-c2nc(C)cs2)n(CC(=O)N2CCCCC2)c1 (stereo unspecified) | 920 |
| NC(=O)CCCCn1ccc(NC(N)=NCC(F)(F)F)n1 | 617 |
| O=C(N[C@@H]1CN(c2ncccn2)C[C@H]1CO)C1CC=CC1 | 567 |
| CCOC(=O)CSc1nc2ccccc2[nH]1 | 596 |
| CC(C)n1cnc(S(=O)(=O)N2CCC(C(=O)NC3CCCCCCC3)CC2)c1 | 827 |
| O=C(Cn1cccc1-c1nnc(C2CC2)o1)N1CCN(c2ccccc2)CC1 | 821 |
| COCCC(=O)N1CCC(Oc2nccnc2N2CCOCC2)C1 (stereo unspecified) | 613 |
| CC1CCN(S(=O)(=O)c2ccc3nn(CC(=O)OC(C)C)c(=O)n3c2)CC1 | 929 |
| O=C(NCc1csc(-c2cccs2)n1)C1CCN(C(=O)CCc2ccccc2)CC1 | 805 |
| OC[C@@H]1CNC[C@H]1C1CCN(Cc2cccc(Cl)c2F)CC1 | 806 |
| CCOC(=O)C1CCCN(Cc2cn3cc(F)ccc3n2)C1 (stereo unspecified) | 559 |
| O=C(NCC1(CO)CC1)NC(c1ccccc1)c1ccccc1 | 706 |

| Compound | RP-LC retention time [s] |
| --- | --- |
| CCn1cc(S(=O)(=O)N2CCC(CCOc3ccccc3F)C2)cn1 (stereo unspecified) | 948 |
| O=C1NC(C(=O)Nc2ccc3c(c2)OCCO3)Cn2cccc21 (stereo unspecified) | 643 |
| O=C(c1cccc2c1CCN2C(=O)C1CC1)N1CCOCC1 | 645 |
| CCOC(=O)c1c(C)[nH]c(C(=O)N2CCCC(C(=O)NCCCN3CCOCC3)C2)c1C (stereo unspecified) | 593 |
| O=C(NCCC1=CCCCC1)C(=O)NCC(O)c1ccc(C(F)(F)F)cc1 (stereo unspecified) | 949 |
| CC1CCN(C(=O)Cn2c(=O)c3cccn3c3ccc(F)cc32)CC1 | 855 |
| Cc1cc2c(cc1S(=O)(=O)N1CCCC1C(=O)Nc1ccc(F)cc1F)OCC(=O)N2 (stereo unspecified) | 774 |
| CCN(Cc1ccccc1)C(=O)c1cn2c(n1)COCC2 | 640 |
| CC1CCC(NC(=O)CN2C(=O)CCCc3cc(S(=O)(=O)N4CCC(C)CC4)ccc32)CC1 (stereo unspecified) | 1040 |
| Cc1cc(Cl)ccc1NC(=O)C1CCCN1S(=O)(=O)c1cc2c(cc1C)NC(=O)C(C)O2 (stereo unspecified) | 914 |
| CS(=O)(=O)N(C1CCOCC1)C1CN(C(=O)c2cc(F)ccc2F)C1 | 687 |
| Cc1ccc(NC(=O)NCC2CCOCC2)cc1F | 710 |
| O=S(=O)(c1ccc(-c2cnc(C3CCCC3)o2)s1)N1CCN(c2ncccn2)CC1 | 1120 |
| O=C(Nc1nc(-c2cc([N+](=O)[O-])cs2)cs1)C1=COCCO1 | 829 |
| COCCOc1cc(=O)n2c(c1C(=O)NC1CCC1)CCOCC2 | 575 |
| CNC(=O)c1c(NC(=O)C2COc3ccccc3O2)sc2c1CCCC2 (stereo unspecified) | 1030 |
| CC(N)c1cccc(Cl)c1Cl (stereo unspecified) | 636 |
| CCN(CC)S(=O)(=O)c1ccc2c(c1)cc(C(=O)NCCC(C)N1CCCC1)n2C (stereo unspecified) | 658 |
